Among the data in patent publication US9550742B2, “11-OXO-10,11-dihydrodibenzo[B,F][1,4]thiazepine S-oxide derivatives and their use as dopamine D2 receptor antagonists” (The United States of America, as Represented by the …, priority 2013, dated 2017) are AC50 values, retold here.

T1 sequence (P14416 whole entry): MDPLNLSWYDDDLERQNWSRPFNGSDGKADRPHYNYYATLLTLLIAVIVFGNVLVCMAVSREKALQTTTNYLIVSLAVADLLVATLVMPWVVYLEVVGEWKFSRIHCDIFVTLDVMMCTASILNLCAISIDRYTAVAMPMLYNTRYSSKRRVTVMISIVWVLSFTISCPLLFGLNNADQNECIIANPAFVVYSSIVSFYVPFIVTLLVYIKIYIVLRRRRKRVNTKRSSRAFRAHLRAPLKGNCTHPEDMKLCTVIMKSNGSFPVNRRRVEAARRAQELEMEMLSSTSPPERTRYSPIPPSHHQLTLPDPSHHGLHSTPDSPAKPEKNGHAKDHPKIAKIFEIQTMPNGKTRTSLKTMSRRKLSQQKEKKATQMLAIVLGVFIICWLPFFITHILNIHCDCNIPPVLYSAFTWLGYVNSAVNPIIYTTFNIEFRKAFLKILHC

This assay concerns the target T1, D2 DAR (Homo sapiens, UniProt P14416).
T1 construct: expressed in transfected cells; host or cells: HEK293 T-REx, Tet-inducible, with chimeric G-protein Gqi5
The experiment in a line: D2 Ca^2+ screen assay (calcium accumulation, HEK293 T-REx with Gqi5). It is filed as cell-based. The note with it: dopamine D2 calcium release assay of Example 1; read-out: Ca^2+ AC50. Here is the method: The resting concentration of calcium ions (Ca^2+) in the cells' cytoplasm is normally maintained in the range of 10-100 nM. To maintain this low concentration, Ca^2+ is actively pumped from the cytosol to the extracellular space and into the endoplasmic reticulum (ER), and sometimes into the mitochondria. Signaling occurs when the cell is stimulated to release Ca^2+ from intracellular stores. The most common signaling pathway that increases cytoplasmic calcium concentration is the phospholipase C (PLC) pathway. […] IP3 diffuses to the ER, binds to its receptor (IP3 receptor), which is a Ca^2+ channel and, thus, releases Ca^2+ from the ER to the cytosol. To measure this cytosolic Ca^2+ accumulation, we used the Screen Quest™ Fluo-8 Calcium Assay Kit (AAT Bioquest, Sunnyvale, Calif.). Acetoxymethyl (AM) esters bound to Fluo-8™ dye are non-polar molecules that easily cross live cell membranes transporting the dye inside the cell, and are then rapidly hydrolyzed by cellular esterases inside live cells. As Fluo-8™ is freed from AM esters, it binds to Ca^2+ and emits a fluorescent signal at 514 nm that escalates with increasing cytosolic Ca^2±. To measure this calcium flux signal, we used the Functional Drug Screening System (FDSS) (Hamamatsu, Japan), a high throughput screening device that allows optical detection of signal transmissions within living cells in a time-resolving fashion. […] Quest Fluo-8™ calcium reagent was freshly prepared prior to adding to the cells (lyophilized Fluo-8™ dye provided with the kit was re-suspended in 200 μL DMSO as a 500× stock and stored at −20° C.). 2 μL/well of Quest Fluo-8™ calcium dye diluted in HBSS +10 mM HEPES buffer (for every 10 mL buffer, 1 mL of 10× quencher provided in the kit and 20 μL of 500×DMSO stock dye were added) was added to cells with a Multi-Drop Combi (ThermoScientific) and incubated for 45-90 min in the dark at ambient temperature. Then, the plates were introduced into the FDSS where they were pinned with 23 nL of test compound or dopamine controls and were read by FDSS in non-stimulated mode for 180 sec for detection of agonists. […]
With `CCN1C(=O)c2ccccc2[S+]([O-])c2ccc(C(=O)NCc3cccc(OC)c3)cc21` (stereo not drawn) [Compound 2, 10-Ethyl-N-(3-methoxybenzyl)-11-oxo-10,11-dihydrodibenzo[b,f][1,4]thiazepine-8-carboxamide 5-oxide], the AC50 is under 1000 nM.
`CCN1C(=O)c2ccccc2[S+]([O-])c2ccc(C(=O)NCc3ccccc3)cc21` (stereo not drawn) [Compound 4, N-Benzyl-10-ethyl-11-oxo-10,11-dihydrodibenzo[b,f][1,4]thiazepine-8-carboxamide 5-oxide]: the AC50 is under 1000 nM.
For `CCN1C(=O)c2ccccc2[S+]([O-])c2ccc(C(=O)NC(C)c3ccccc3)cc21` (stereo not drawn) [Compound 5, 10-Ethyl-11-oxo-N-(1-phenylethyl)-10,11-dihydrodibenzo[b,f][1,4]thiazepine-8-carboxamide 5-oxide], the AC50 was under 1000 nM.
Turning to `CCN1C(=O)c2ccccc2[S+]([O-])c2ccc(C(=O)NCc3ccc(SC)cc3)cc21` (stereo not drawn) [Compound 6, 10-Ethyl-N-(4-(methylthio)benzyl)-11-oxo-10,11-dihydrodibenzo[b,f][1,4]thiazepine-8-carboxamide 5-oxide], the AC50 is under 1000 nM.
As for `CCN1C(=O)c2ccccc2[S+]([O-])c2ccc(C(=O)NCc3ccc(C(C)(C)C)cc3)cc21` (stereo not drawn) [Compound 7, N-(4-tert-Butylbenzyl)-10-ethyl-11-oxo-10,11-dihydrodibenzo[b,f][1,4]thiazepine-8-carboxamide 5-oxide], the AC50 is under 1000 nM.
As to `CCN1C(=O)c2ccccc2[S+]([O-])c2ccc(C(=O)NCc3ccc(C)cc3)cc21` (stereo not drawn) [Compound 8, 10-Ethyl-N-(4-methylbenzyl)-11-oxo-10,11-dihydrodibenzo[b,f][1,4]thiazepine-8-carboxamide 5-oxide], the AC50 is under 1000 nM.
With `CCN1C(=O)c2ccccc2[S+]([O-])c2ccc(C(=O)NCc3ccc(C(F)(F)F)cc3)cc21` (stereo not drawn) [Compound 9, 10-Ethyl-11-oxo-N-(4-(trifluoromethyl)benzyl)-10,11-dihydrodibenzo[b,f][1,4]thiazepine-8-carboxamide 5-oxide], the AC50 was under 1000 nM.
As to `CCN1C(=O)c2ccccc2[S+]([O-])c2ccc(C(=O)NCc3ccc(F)cc3)cc21` (stereo not drawn) [Compound 10, 10-Ethyl-N-(4-fluorobenzyl)-11-oxo-10,11-dihydrodibenzo[b,f][1,4]thiazepine-8-carboxamide 5-oxide], the AC50 was under 1000 nM.
Take `CCN1C(=O)c2ccccc2[S+]([O-])c2ccc(C(=O)NCc3ccc(Cl)cc3)cc21` (stereo not drawn) [Compound 11]: the AC50 is under 1000 nM.
Turning to `CCN1C(=O)c2ccccc2[S+]([O-])c2ccc(C(=O)NCc3ccc(C#N)cc3)cc21` (stereo not drawn) [Compound 12, N-(4-Cyanobenzyl)-10-ethyl-11-oxo-10,11-dihydrodibenzo[b,f][1,4]thiazepine-8-carboxamide 5-oxide], the AC50 was under 1000 nM.
`CCN1C(=O)c2ccccc2[S+]([O-])c2ccc(C(=O)NCc3ccc(S(C)(=O)=O)cc3)cc21` (stereo not drawn) [Compound 13, 10-Ethyl-N-(4-(methylsulfonyl)benzyl)-11-oxo-10,11-dihydrodibenzo[b,f][1,4]thiazepine-8-carboxamide 5-oxide]: the AC50 is under 1000 nM.
Consider `CCN1C(=O)c2ccccc2[S+]([O-])c2ccc(C(=O)NCc3ccc4c(c3)OCO4)cc21` (stereo not drawn) [Compound 15, N-(benzo[d][1,3]dioxol-5-ylmethyl)-10-ethyl-11-oxo-10,11dihydrodibenzo[b,f][1,4]thiazepine-8-carboxamide 5-oxide], for which the AC50 is under 1000 nM.
As to `CCN1C(=O)c2ccccc2[S+]([O-])c2ccc(C(=O)Nc3ccccc3)cc21` (stereo not drawn) [Compound 16, 10-Ethyl-11-oxo-N-phenyl-10,11-dihydrodibenzo[b,f][1,4]thiazepine-8-carboxamide 5-oxide], the AC50 was under 1000 nM.
On to `CCN1C(=O)c2ccccc2[S+]([O-])c2ccc(C(=O)Nc3ccc(OC)cc3)cc21` (stereo not drawn) [Compound 17, 10-Ethyl-N-(4-methoxyphenyl)-11-oxo-10,11-dihydrodibenzo[b,f][1,4]thiazepine-8-carboxamide 5-oxide], for which the AC50 is under 1000 nM.
The value for `CCN1C(=O)c2ccccc2[S+]([O-])c2ccc(C(=O)NCCc3ccc(OC)cc3)cc21` (stereo not drawn) [Compound 18, 10-Ethyl-N-(4-methoxyphenethyl)-11-oxo-10,11-dihydrodibenzo[b,f][1,4]thiazepine-8-carboxamide 5-oxide] was under 1000 nM; that for `COc1ccc(CNC(=O)c2ccc3c(c2)N(C)C(=O)c2ccccc2[S+]3[O-])cc1` (stereo not drawn) [Compound 20, N-(4-Methoxybenzyl)-10-methyl-11-oxo-10,11-dihydrodibenzo[b,f][1,4]thiazepine-8-carboxamide 5-oxide] was under 1000 nM; that for `CCCN1C(=O)c2ccccc2[S+]([O-])c2ccc(C(=O)NCc3ccc(OC)cc3)cc21` (stereo not drawn) [Compound 21, N-(4-Methoxybenzyl)-11-oxo-10-propyl-10,11-dihydrodibenzo[b,f][1,4]thiazepine-8-carboxamide 5-oxide] was under 1000 nM.
For the compound `COc1ccc(NC(=O)c2ccc3c(c2)N(C)C(=O)c2ccccc2[S+]3[O-])cc1` (stereo not drawn) [Compound 24, N-(4-Methoxyphenyl)-10-methyl-11-oxo-10,11-dihydrodibenzo[b,f][1,4]thiazepine-8-carboxamide 5-oxide], the AC50 is under 1000 nM.
Consider `CN1C(=O)c2ccccc2[S+]([O-])c2ccc(C(=O)NCc3ccccc3)cc21` (stereo not drawn) [Compound 25, N-Benzyl-10-methyl-11-oxo-10,11-dihydrodibenzo[b,f][1,4]thiazepine-8-carboxamide 5-oxide], for which the AC50 was under 1000 nM.
Consider `CN1C(=O)c2ccccc2[S+]([O-])c2ccc(C(=O)NCc3ccc(F)cc3)cc21` (stereo not drawn) [Compound 26, N-(4-Fluorobenzyl)-10-methyl-11-oxo-10,11-dihydrodibenzo[b,f][1,4]thiazepine-8-carboxamide 5-oxide], for which the AC50 was under 1000 nM.
In the case of `CN1C(=O)c2ccccc2[S+]([O-])c2ccc(C(=O)NCc3ccc(Cl)cc3)cc21` (stereo not drawn) [Compound 27, N-(4-Chlorobenzyl)-10-methyl-11-oxo-10,11-dihydrodibenzo[b,f][1,4]thiazepine-8-carboxamide 5-oxide], the half-maximal activity concentration (AC50) is under 1000 nM.
The value for `CN1C(=O)c2ccccc2[S+]([O-])c2ccc(C(=O)NCc3cccc(Cl)c3)cc21` (stereo not drawn) [Compound 28, N-(3-Chlorobenzyl)-10-methyl-11-oxo-10,11-dihydrodibenzo[b,f][1,4]thiazepine-8-carboxamide 5-oxide] was under 1000 nM; that for `CN1C(=O)c2ccccc2[S+]([O-])c2ccc(C(=O)NCc3ccc(Br)cc3)cc21` (stereo not drawn) [Compound 29, N-(4-Bromobenzyl)-10-methyl-11-oxo-10,11-dihydrodibenzo[b,f][1,4]thiazepine-8-carboxamide 5-oxide] was under 1000 nM; that for `CN1C(=O)c2ccccc2[S+]([O-])c2ccc(C(=O)NCc3cccnc3)cc21` (stereo not drawn) [Compound 31, 10-Methyl-11-oxo-N-(pyridin-3-ylmethyl)-10,11-dihydrodibenzo[b,f][1,4]thiazepine-8-carboxamide 5-oxide] was under 1000 nM.
With `CN1C(=O)c2ccccc2[S+]([O-])c2ccc(C(=O)NCCN3CCCC3)cc21` (stereo not drawn) [Compound 33, 10-Methyl-11-oxo-N-(2-(pyrrolidin-1-yl)ethyl)-10,11-dihydrodibenzo[b,f][1,4]thiazepine-8-carboxamide 5-oxide], the AC50 is under 1000 nM.
For the compound `CN1C(=O)c2ccccc2[S+]([O-])c2ccc(C(=O)NCCN3CCCCC3)cc21` (stereo not drawn) [Compound 34, 10-Methyl-11-oxo-N-(2-(piperidin-1-yl)ethyl)-10,11-dihydrodibenzo[b,f][1,4]thiazepine-8-carboxamide 5-oxide], the AC50 is under 1000 nM.
The value for `CN(C)CCCNC(=O)c1ccc2c(c1)N(C)C(=O)c1ccccc1[S+]2[O-]` (stereo not drawn) [Compound 35, N-(3-(Dimethylamino)propyl)-10-methyl-11-oxo-10,11-dihydrodibenzo[b,f][1,4]thiazepine-8-carb oxamide 5-oxide] was under 1000 nM; that for `CCN1C(=O)c2ccccc2Sc2ccc(C(=O)NCc3ccc(OC)cc3)cc21` [Compound 36, 10-Ethyl-N-(4-methoxybenzyl)-11-oxo-10,11-dihydrodibenzo[b,f][1,4]thiazepine-8-carboxamide] was under 1000 nM.
In the case of `CCN1C(=O)c2ccccc2[S+]([O-])c2ccc(NC(=O)Cc3ccc(OC)cc3)cc21` (stereo not drawn) [Compound 45, N-(10-Ethyl-11-oxo-10,11-dihydrodibenzo[b,f][1,4]thiazepin-8-yl)-2-(4-methoxyphenyl)acetamide 5-oxide], the AC50 was under 1000 nM.
On to `CCN1C(=O)c2ccccc2[S+]([O-])c2ccc(NC(=O)Cc3ccc(F)cc3)cc21` (stereo not drawn) [Compound 46, N-(10-Ethyl-11-oxo-10,11-dihydrodibenzo[b,f][1,4]thiazepin-8-yl)-2-(4-fluorophenyl)acetamide 5-oxide], for which the AC50 was under 1000 nM.

In general, AC50 refers to the midpoint of the concentration-response curve, whichever way the signal moves.
